Assay results as given in PubChem BioAssay AID651893 (Broad Institute, 2012).

System: T. b. rhodesiense STIB900 proliferation, Alamar blue, 72 h
Assay: T. b. rhodesiense proliferation inhibition, dose response, STIB900 strain, plate reader, cherry pick (AID 651893)

## C[C@@H]1CN([C@@H](C)CO)C(=O)c2cccc(NC(=O)c3ccncc3)c2O[C@H]1CN(C)Cc1ccc(Oc2ccccc2)cc1
  IC50: 715 nM
